According to patent publication US10131652B2, “Pyrimidinyloxy benzene derivatives as herbicides” (E. I. DU PONT DE NEMOURS AND COMPANY, priority 2014, dated 2018):

How the values were obtained:
[1] = system: cocklebur (common cocklebur, Xanthium strumarium); assay: Test F pre-/postemergence plant response; type: in vivo; conditions: scale 0 to 100
How it was run: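 Seeds were sown in silt loam soil and sprayed preemergence; separately, plants at the 1- to 4-leaf stage (2 to 18 cm) received postemergence sprays. Test chemicals were in a non-phytotoxic solvent mixture with surfactant. After 14 to 21 days in a greenhouse, injury was visually rated 0 (no effect) to 100 (complete control) against untreated controls.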

[2] = system: redstem (purple redstem, Ammannia coccinea); assay: Test G flooded paddy rice/weed plant response; type: in vivo; conditions: Flood, 21 days, scale 0 to 100 (0 no effect, 100 complete control)
Text: (§1) Three plastic pots (ca. 16-cm diameter) per rate were partially filled with sterilized Tama silt loam soil comprising a 35:50:15 ratio of sand, silt and clay and 2.6% organic matter. Separate plantings for each of the three pots were as follows. Seeds from the U.S. of monochoria (Monochoria vaginalis), small-flower umbrella sedge (Cyperus difformis), hardstem bulrush (Scirpus juncoides), and redstem (purple redstem, Ammannia coccinea), were planted into one 16-cm pot for each rate. Seeds from the U.S. of rice flatsedge (Cyperus iria), bearded sprangletop (Leptochloa fascicularis), one stand of 9 or 10 water seeded rice seedlings (Indica rice, Oryza sativa), and two stands of 3 or 4 transplanted rice seedlings (Oryza sativa cv. ‘Japonica—M202’) were planted into one 16-cm pot for each rate. Seeds from the U.S. of bamyardgrass (Echinochloa crus-galli), and late watergrass (Echinochloa oryzicola) were planted into one 16-cm pot for each rate. Plantings were sequential so that crop and weed species were at the 2.0 to 2.5-leaf stage at time of treatment.
(§2) Potted plants were grown in a greenhouse with day/night temperature settings of 30/27° C., and supplemental balanced lighting was provided to maintain a 16-hour photoperiod. Test pots were maintained in the greenhouse until test completion.
(§3) At time of treatment, test pots were flooded to 3 cm above the soil surface, treated by application of test compounds directly to the paddy water, and then maintained at that water depth for the duration of the test. Effects of treatments on rice and weeds were visually evaluated by comparison to untreated controls after 21 days. Plant response ratings, summarized in Table G, are based on a scale of 0 to 100 where 0 is no effect and 100 is complete control. A dash (-) response means no test result.

[3] = system: transplanted rice seedlings (Oryza sativa cv. ‘Japonica—M202’); assay: Test G flooded paddy rice/weed plant response; type: in vivo; conditions: Flood, 21 days, scale 0 to 100 (0 no effect, 100 complete control)
Text: as §1, §2, §3

[4] = system: hardstem bulrush (Scirpus juncoides); assay: Test G flooded paddy rice/weed plant response; type: in vivo; conditions: Flood, 21 days, scale 0 to 100 (0 no effect, 100 complete control)
Text: as §1, §2, §3

[5] = system: rice flatsedge (Cyperus iria); assay: Test G flooded paddy rice/weed plant response; type: in vivo; conditions: Flood, 21 days, scale 0 to 100 (0 no effect, 100 complete control)
Text: as §1, §2, §3

Row | SMILES | Plant response rating, Cocklebur ([1]; 31 g ai/ha Preemergence) | Plant response rating, Cocklebur ([1]; 125 g ai/ha Preemergence) | Plant response rating, Redstem ([2]; 32 g ai/ha) | Plant response rating, Redstem ([2]; 64 g ai/ha) | Plant response rating, Redstem ([2]; 125 g ai/ha) | Plant response rating, Redstem ([2]; 250 g ai/ha) | Plant response rating, Rice, Transplanted ([3]; 32 g ai/ha) | Plant response rating, Rice, Transplanted ([3]; 64 g ai/ha) | Plant response rating, Rice, Transplanted ([3]; 125 g ai/ha) | Plant response rating, Rice, Transplanted ([3]; 250 g ai/ha) | Plant response rating, Bulrush, Hardstem ([4]; 32 g ai/ha) | Plant response rating, Bulrush, Hardstem ([4]; 64 g ai/ha) | Plant response rating, Bulrush, Hardstem ([4]; 125 g ai/ha) | Plant response rating, Bulrush, Hardstem ([4]; 250 g ai/ha) | Plant response rating, Flatsedge, Rice ([5]; 32 g ai/ha) | Plant response rating, Flatsedge, Rice ([5]; 64 g ai/ha) | Plant response rating, Flatsedge, Rice ([5]; 125 g ai/ha) | Plant response rating, Flatsedge, Rice ([5]; 250 g ai/ha) | melting point
1 | FC(F)c1cc(-c2ccccc2Oc2ncc(Cl)cn2)no1 [Compound 35, 5-chloro-2-[2-[5-(difluoromethyl)-3-isoxazolyl]phenoxy]pyrimidine] | 0 | 0 | 0 | 85 | 90 | 100 | 15 | 30 | 45 | 100 | 0 | 95 | 100 | 100 | 100 | 100 | 100 | 100 | 
2 | Fc1cccc(Oc2ncc(Cl)cn2)c1-c1cc(C(F)F)on1 [Compound 55, 5-chloro-2-[2-[5-(difluoromethyl)-3-isoxazolyl]-3-fluorophenoxy]pyrimidine] |  |  | 85 | 95 | 100 | 100 | 20 | 60 | 80 | 100 | 80 | 100 | 100 | 100 | 85 | 100 | 100 | 100 | 
3 | FC(F)c1cc(-c2ccccc2Oc2ncc(Br)cn2)no1 [Compound 62, 5-bromo-2-[2-[5-(difluoromethyl)-3-isoxazolyl]phenoxy]pyrimidine] |  |  |  |  |  |  |  |  |  |  |  |  |  |  |  |  |  |  | 89 to 93 °C
